Results as given in US20150313913A1, “POSITIVE ALLOSTERIC MODULATORS OF THE GABA-A RECEPTOR IN THE TREATMENT OF AUTISM” (UNIVERSITY OF WASHINGTON THROUGH ITS CENTER FOR …, priority 2013, published 2015).
Entries after “also recorded” stand apart in the source; their conditions may differ.

Key:
Scn1a+/− mice [1] = test: Open field and elevated plus maze tests (sedation, anxiolysis); type: in vivo
Description: Open field test was performed as previously described^23. Briefly, each individual mouse was placed near the wall-side of 38×42 cm open-field arena, and the movement of the mouse was recorded by USB webcam (LIFECAM™ HD-6000, MICROSOFT™) and PC-based video capture software (WINAVI VIDEO CAPTURE™, ZJMEDIA DIGITAL TECHNOLOGY™) for 10 min. The recorded video file was further analyzed by off-line video tracking software (ETHOVISION™ XT 7.0, NOLDUS TECHNOLOGY™). Total distance traveled and time in center (15×15 cm imaginary square) were measured. The open field arena was cleaned with 70% ethanol and wiped with paper towels between each trial.
The elevated plus maze is a plus-shaped maze that is elevated 60 cm above the floor. It consists of two closed arms surrounded by 15-cm high transparent walls and two open arms (5×25 cm) with a small ledge along the side of two open arms to prevent falling from the maze during the test. Each mouse was placed in the center (5×5 cm) of the maze facing one of the closed arms. During the 10-min test period, the movement of the mouse was recorded by a USB webcam (LIFECAM™ HD-6000, MICROSOFT™) and PC-based video capture software (WINAVI VIDEO CAPTURE™, ZJ MEDIA DIGITAL TECHNOLOGY™). The recorded video file was further analyzed by off-line video tracking software (ETHOVISION™ XT 7.0). Times spent in closed arms, center, and open arms were measured. The maze was cleaned with 70% ethanol and wiped with paper towels between each trial.
(§1) Oral administration is specifically contemplated for the methods described herein, and is well known for both benzodiazepines and non-BDZ GABA-A enhancers as described herein.

wild-type mice [2] = test: Three-chamber social preference test; type: in vivo; conditions: 0.0625 mg/kg, listed as CLZ
Description: The test was performed as described previously^34 with minor modifications. […] Each partition has a square opening (5×5 cm) in the bottom center. A cylindrical wire cage (10.5 cm diameter; GALAXY PENCIL CUP™ […] D[…]™) was used as an inanimate object or the cage housing a stranger mouse. A cylindrical bottle filled with water was placed on the top of the wire cup to prevent the test mouse from climbing to the top of the cup. The three-chamber unit and wire cups were cleaned with 70% ethanol and wiped with paper towels between each trail. […] The mouse was allowed to freely explore each chamber. […] The wire cage on the other side remained empty (E). […] Thus, the test mouse would now have the choice between a mouse that was already familiar (M1) and a new stranger mouse (M2). […] The movement of the mouse was recorded by a USB webcam (LIFECAM™ HD-6000, MICROSOFT™) and PC-based video capture software (WINAVI™ Video Capture, ZJ MEDIA DIGITAL TECHNOLOGY™). The recorded video file was further analyzed by off-line video tracking software (ETHOVISION™ XT 7.0).
as §1

Scn1a+/− mice [3] = test: Contextual fear-conditioning test; type: in vivo; conditions: single i.p. 0.0625 mg/kg 30 min before training, listed as CLZ
Source text: (§2) The contextual fear-conditioning chamber was a square arena (25×25 cm) with clear PLEXIGLAS™ walls and a metal grid floor connected to a circuit board that delivered shocks to the metal grid (COULBOURN INSTRUMENTS™). An analog camera was attached on top of the chamber. The camera and the circuit board were connected to a personal computer, and its software (FREEZE FRAME™ 2.0, ACTIMETRICS™) controlled the circuit and recorded the data. The chamber was cleaned with 70% ethanol and wiped with paper towels before each session. In the habituation session, a test mouse was placed in the chamber and allowed to explore for 2 min^66-69. Immediately after habituation, the test mouse received a single mild foot shock (2 s, 0.5 mA). After staying in the chamber one more min, the mouse was removed from the chamber. For the 30-min short-term memory test, the mouse was returned to the context 30 min after the end of the training session. […] The movement of mice was also recorded by a USB webcam (LIFECAM™ HD-6000, MICROSOFT™) and PC-based video capture software (WINAVI™ Video Capture, ZJ MEDIA DIGITAL TECHNOLOGY™) for 2 min. The recorded video file was further analyzed by off-line video tracking software (ETHOVISION™ XT 7.0, NOLDUS TECHNOLOGY™). The freezing scores were calculated by dividing the test session into 1 min bouts and averaging together all 2 min for each animal. […]

wild-type mice [4] = test: Contextual fear-conditioning test; type: in vivo; conditions: 0.0625 mg/kg, listed as CLZ
Source text: as §2

BTBR mice = test: Barnes circular maze test; type: in vivo
Source text: (§3) The Barnes circular maze is a planar, round white PLEXIGLAS™ platform (92 cm diameter), 1 m above the floor, with 20 evenly spaced holes (7 cm diameter) located 5 cm from the perimeter. A black escape box (15×7×7 cm) was placed under one hole. Spatial cues with distinct patterns and shapes were placed on the wall of the testing room. A 500 lux light was turned on during the trial. An experimenter remained in the same place with minimal movement throughout the trials. The platform and the escape box were cleaned thoroughly with 70% ethanol and paper towels between each trial to remove olfactory cues. One day before the training trials began, test mice were habituated in the target box for 3 min. The training trials were repeated for 4 consecutive days, and 3 trials were performed each day with 20 min inter-trial intervals. At the beginning of each trial, a test mouse was placed in a cylindrical holding chamber (10 cm diameter) located in the center of the maze. After 10 s of holding time, the mouse was allowed to search for the target hole for 3 min. […] When the mouse entered the escape box, the light was turned off and the mouse remained undisturbed for 1 min. The movement of the mouse was recorded, and the number of errors made and the latency to find the target hole were measured during the training trials by video tracking software. On day 5, the probe trial was performed with each mouse. The escape box was removed, and the test mouse was allowed to find the target hole freely for 90 s. During the probe trial, total distance traveled and the latency to find the target hole were measured. % correct pokes and % time in the target area were also measured.
(§4) The number of errors made and the latency to find the target hole were measured during the 3 min-training trials by video tracking software.
(§5) During the 90 second-probe trial, the latency to find the target hole, % correct pokes, and % time in the target area were measured by the video-tracking software (EthoVision XT 8.5, Noldus Technology).

C57BL/6J mice = test: Barnes circular maze test; type: in vivo; conditions: 0.05 mg/kg
Source text: as §3, §4, §5

[5] = cited from earlier work
[6] = tested on: GABA-A α2, α3 and α5 subtypes; conditions: cited from earlier work

Structure (SMILES)	anxiolytic effect in elevated plus maze (Scn1a+/− mice [1]; 0.0625 mg/kg)	anxiolytic effect in open field test (Scn1a+/− mice [1]; 0.0625 mg/kg)	locomotor activity in open field test (Scn1a+/− mice [1]; 0.0625 mg/kg)	sedation (Scn1a+/− mice [1]; both wild-type and Scn1a+/− mice, dose series)	maximal intraperitoneal dose that did not cause significant sedation or anxiolytic effect (Scn1a+/− mice [1]; open field and elevated plus maze, Scn1a+/− mice)	social interaction, 3-chamber social preference test (wild-type mice [2])	short-term (30 min) and long-term (24 h) fear-associated contextual memory (Scn1a+/− mice [3])	fear-associated contextual memory (wild-type mice [4])	spatial learning during training sessions (latency, errors) (BTBR mice; 0.05 mg/kg)	spatial memory in probe trials (BTBR mice; single low dose 30 min prior)	learning performance and spatial memory (C57BL/6J mice)	Dose in humans for anti-anxiety, anti-convulsive, or sedative effects: equivalent dose to 10 mg diazepam ([5]; Table 1, values marked *)	dose of equivalent efficacy to 10 mg of diazepam [5]	action at α2, α3 and α5 subtypes [6]
O=C1CN=C(c2ccccc2Cl)c2cc([N+](=O)[O-])ccc2N1 [Clonazepam]	did not elicit anxiolytic effects	not observed	not changed	dose-dependent sedation	0.0625 mg/kg	no effect; also recorded: absent; also recorded: not changed	complete reversal; also recorded: complete rescue	unaffected; also recorded: no significant change	significantly improved	increased	regardless of clonazepam treatment; also recorded: significantly worsened	0.5 mg	0.5 mg	
Cn1ncnc1COc1nn2c(-c3cc(F)ccc3F)nnc2cc1C(C)(C)C [L-838,417]														partial agonist
